Measurements published in US20120184548A1, “CARBOXYLIC ACID ARYL AMIDES” (priority 2011, published 2012).
pEC50, pIC50: −log10 of the molar value.

Columns and labels:
Human DYRK1B = molecular target: T1, Human DYRK1B (Homo sapiens, UniProt Q9Y463); assay: DYRK1B Kinase TR-FRET (IMAP-Tb) Assay; assay type: biochemical; settings: TR-FRET; ATP 70 μM; 37° C. for 60 minutes; averages of multiple runs; read-out: Enzyme IC50 DYRK1B
T1 construct: purchased Invitrogen PR8350B (former PV4649)

Human DYRK1A = molecular target: T2, Human DYRK1A (Homo sapiens, UniProt Q13627); assay: DYRK1A Kinase TR-FRET (IMAP-Tb) Assay; assay type: biochemical; settings: TR-FRET; ATP 70 μM; 37° C. for 60 minutes; averages of multiple runs; read-out: Enzyme IC50 DYRK1A
T2 construct: purchased Invitrogen PV3997

[1] = test system: SW620 human colon cancer cells; assay: SW620 Cell Viability Assay (CellTiter-Glo); assay type: cell-based; settings: SW-620, 96 h, 4 days incubation, read-out: Cellular EC50 SW620
Protocol: 1. Cell Plate Preparation: SW620 human colon cancer cells (known to express DYRK1B), obtained from ATCC, were seeded into 96-well plates at […] in 50 μL of media. • Harvested the required number of cells (counts & viability determined by Guava Viacount). • Centrifuge cells to pellet and removed supernant. • Resuspended in growth media (50 μL/well) & pipetted thoroughly to break up clumps. • Setup for ˜100 wells/plate, therefore, VT=5 mL/plate @ 1.2×10^5 cells/mL. 1A. Some cells (S-) were allowed to attach for 24 hrs, serum starved for 48 hrs, and then followed with treatments of test compound.
Test Compound solution was prepared in regular corresponding media supplemented with serum
2. Test Compound Preparation: Test compounds were solubilized in either DMSO or media and prepared at various stock concentrations. • All compounds were incubated at 37° C. for 30 minutes and vortexed. • (5 mM stocks of test compound were prepared for non-soluble drugs)
3. Test Compound Plate Preparation:
• The 10 mM test compound stock was diluted to a concentration of 100× the final Cmax concentration. • Then the test compound stock is diluted 50-fold in media and/or second test compound for a final Cmax concentration in the test compound plate. • The Cmax in the test compound plate (2% DMSO) is 2-fold higher than the final Cmax in the cell plate (60 uL titrations were 1:3). 4. Viability Assay: This assay was performed as follows: • Transfer 50 μL of test compound solution per well from the test compound plate onto the cell plate prepared in Step #1. • Mix the plate with treated cells by pipetting up and down three times with 200 μL multi-channel pipet. • Incubate the cells in 5% CO2 incubator @ 37° C. for 4 days. • Run the CellTiter-Glo™ Luminescent Cell Viability Assay. The results of this assay, given as EC50 values, indicate the concentration of test compound that inhibits tumor cell proliferation by 50%.

T1 sequence (Q9Y463 whole entry): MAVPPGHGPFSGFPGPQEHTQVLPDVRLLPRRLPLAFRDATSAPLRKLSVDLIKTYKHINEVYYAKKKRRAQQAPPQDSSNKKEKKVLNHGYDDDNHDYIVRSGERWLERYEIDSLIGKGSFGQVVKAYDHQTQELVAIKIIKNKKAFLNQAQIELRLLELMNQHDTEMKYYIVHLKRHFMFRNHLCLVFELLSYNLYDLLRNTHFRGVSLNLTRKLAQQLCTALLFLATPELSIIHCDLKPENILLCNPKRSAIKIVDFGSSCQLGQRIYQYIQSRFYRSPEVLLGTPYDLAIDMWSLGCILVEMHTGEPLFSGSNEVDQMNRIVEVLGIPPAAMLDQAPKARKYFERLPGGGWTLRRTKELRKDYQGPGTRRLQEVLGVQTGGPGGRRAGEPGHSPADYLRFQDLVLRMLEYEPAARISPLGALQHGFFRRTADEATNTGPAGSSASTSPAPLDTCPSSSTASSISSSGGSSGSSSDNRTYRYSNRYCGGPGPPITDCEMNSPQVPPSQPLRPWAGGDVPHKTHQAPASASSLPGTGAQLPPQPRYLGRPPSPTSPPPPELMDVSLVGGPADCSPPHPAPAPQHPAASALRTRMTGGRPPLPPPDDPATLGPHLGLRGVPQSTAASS

Row | Structure (SMILES) | pIC50 (Human DYRK1B) | pIC50 (Human DYRK1A) | pEC50 [1]
1 | COc1cc2cc(C(=O)Nc3cc(C(=O)NC(CCN)c4ccccc4)ccc3C)c(=O)[nH]c2cc1OC (stereo in doubt) [Example 47, 6,7-Dimethoxy-2-oxo-1,2-dihydro-quinoline-3-carboxylic acid [5-((R)-3-amino-1-phenyl-propylcarbamoyl)-2-methyl-phenyl]-amide] | 7.85 | 7.07 | < 5.52
2 | COCCOc1cc2cc(C(=O)Nc3cc(C(=O)OC)ccc3Cl)c(=O)[nH]c2cc1OC [Example 53, Methyl 4-chloro-3-(7-methoxy-6-(2-methoxyethoxy)-2-oxo-1,2-dihydroquinoline-3-carboxamido)benzoate] | 6.94 | 6.61 | < 5.00
